How the values were obtained:
[1] = Example 4 urine odor panel ranking; set-up: species or system Human; details: for Average Rankings, Avg. Score / Urine Odor Ranking 2 (number of panelists) / Urine Odor Ranking 4 (number of panelists) / Urine Odor Ranking 6 (number of panelists) / Urine Odor Ranking 7 (number of panelists) / Urine Odor Ranking 3 (number of panelists) / Urine Odor Ranking 5 (number of panelists) / Urine Odor Ranking 1 (number of panelists): 8 millimolar in urine, scale 1 to 7, 7 most malodorous
Text: Powders of the aforementioned quinone compounds (commercially available from Sigma-Aldrich Chemical Co., Inc. of St. Louis, Missouri and Noveon Hilton Davis, Inc. of Cincinnati, Ohio) were weighed and placed into the mason jars containing 50 milliliters of urine so that the final concentration of the powder was 8 millimolar (equivalent to 0.5 wt. %).
To aid in the assessment of the quinone compounds, panelists were asked to rank the mason jars from least to most malodorous (on a scale from 1 to 7, with 7 being the most malodors). The results are set forth below in Tables 12 and 13.

[2] = Example 5 urine odor panel ranking; set-up: species or system Human
Description: Assessments were conducted the following day by asking panelists to rate each jar from 1 (least urine malodor) to 8 (most urine malodor). The results are set forth below in Tables 15-18.

[3] = Example 7 urine odor panel ranking (16 millimolar); set-up: species or system Human; details: 16 millimolar in urine, 1 least, 10 most urine malodor
Description: The effectiveness of various quinone compounds in reducing urine odor was compared. […] Human female urine was initially collected and pooled at Kimberly-Clark Corporation. The pooled urine was added to mason jars in 50-milliliter aliquots using an automated pipette aid. Powders of the aforementioned quinone compounds (commercially available from Sigma-Aldrich Chemical Co., Inc. of St. Louis, Missouri and Noveon Hilton Davis, Inc. of Cincinnati, Ohio) were weighed and placed into the mason jars containing 50 milliliters of urine so that the final concentration of the powder was 16 millimolar (equivalent to 1 wt. %). The mason jars were placed in an incubator overnight at 37° C. The experimental setup is set forth in more detail below in Table 21.
Jars were wrapped in foil and placed in an incubator at 37° C. overnight. The jars were divided into four groups (C-F), each sharing the same control jar of urine alone (no powder). Assessments were conducted the following day by asking panelists to rate each jar from 1 (least urine malodor) to 10 (most urine malodor).

[4] = Solubility of powder in urine
[5] = Example 6 urine odor panel ranking; set-up: species or system Human; details: as Example 5, 1 least, 8 most urine malodor
Text: The quinone compounds chosen for this example were Alizarin Blue Black B, Remazol Brilliant Blue R and Acid Green 25. The results are set forth below in Tables 19 and 20.

[6] = Example 5 Group B, 8 mM in urine, 1 least, 8 most urine malodor
[7] = Example 5, 8 mM in 50 milliliters of urine
[8] = Example 7, 16 mM in 50 milliliters of urine
[9] = Example 5 Group A, 8 mM in urine, 1 least, 8 most urine malodor

Molecule: O=C1c2ccccc2C(=O)c2c(O)ccc(O)c21 [1,4-Dihydroxyanthraquinone, 1,4-dihydroxyanthraquinone]
- Average Rankings, Avg. Score [1]: 4.75
- Urine Odor Ranking 2 (number of panelists) [1]: 1
- Urine Odor Ranking 4 (number of panelists) [1]: 1
- Urine Odor Ranking 6 (number of panelists) [1]: 1
- Urine Odor Ranking 7 (number of panelists) [1]: 1

Molecule: Nc1ccc(O)c2c1C(=O)c1ccccc1C2=O [1-Amino-4-Hydroxyanthraquinone, 1-amino-4-hydroxyanthraquinone]
- Average Rankings, Avg. Score [1]: 5
- Urine Odor Ranking 3 (number of panelists) [1]: 1
- Urine Odor Ranking 5 (number of panelists) [1]: 2
- Urine Odor Ranking 7 (number of panelists) [1]: 1

Molecule: CC(=O)Nc1ccc(Nc2cc(S(=O)(=O)[O-])c(N)c3c2C(=O)c2ccccc2C3=O)cc1.[Na+] [Acid Blue 40]
- odor reduction performance (in words) ([2]; Example 5 Group B): performed well
- Average Rankings (Group B), Avg. Score [2, 6]: 4.25
- Urine Odor Ranking 2 (number of panelists) [2, 6]: 1
- Urine Odor Ranking 4 (number of panelists) [2, 6]: 2
- Urine Odor Ranking 7 (number of panelists) [2, 6]: 1
- Average Rankings (Group F), Avg. Score ([3]; Example 7 Group F): 3.8
- Urine Odor Ranking 1 (number of panelists) ([3]; Example 7 Group F): 1
- Urine Odor Ranking 2 (number of panelists) ([3]; Example 7 Group F): 1
- Urine Odor Ranking 3 (number of panelists) ([3]; Example 7 Group F): 1
- Urine Odor Ranking 4 (number of panelists) ([3]; Example 7 Group F): 1
- Urine Odor Ranking 9 (number of panelists) ([3]; Example 7 Group F): 1
- Soluble? [4, 7]: Yes
- Soluble? [4, 8]: Somewhat

Molecule: CC(=O)N(C)c1ccc(Nc2cc(S(=O)(=O)[O-])c(N)c3c2C(=O)c2ccccc2C3=O)cc1.[Na+] [Acid Blue 41]
- Average Rankings (Group A), Avg. Score [2, 9]: 5
- Urine Odor Ranking 4 (number of panelists) [2, 9]: 1
- Urine Odor Ranking 5 (number of panelists) [2, 9]: 2
- Urine Odor Ranking 6 (number of panelists) [2, 9]: 1
- Average Rankings (Group C), Avg. Score ([3]; Example 7 Group C): 3.4
- Urine Odor Ranking 2 (number of panelists) ([3]; Example 7 Group C): 2
- Urine Odor Ranking 3 (number of panelists) ([3]; Example 7 Group C): 2
- Urine Odor Ranking 7 (number of panelists) ([3]; Example 7 Group C): 1
- Soluble? [4, 7]: Yes
- Soluble? [4, 8]: Yes

Molecule: Cc1cc(C)c(S(=O)(=O)[O-])c(C)c1Nc1ccc(Nc2c(C)cc(C)c(S(=O)(=O)[O-])c2C)c2c1C(=O)c1ccccc1C2=O.[Na+].[Na+] [Acid Blue 80]
- Average Rankings (Group B), Avg. Score [2, 6]: 6.25
- Urine Odor Ranking 4 (number of panelists) [2, 6]: 1
- Urine Odor Ranking 5 (number of panelists) [2, 6]: 1
- Urine Odor Ranking 8 (number of panelists) [2, 6]: 2
- Average Rankings (Group F), Avg. Score ([3]; Example 7 Group F): 5.4
- Urine Odor Ranking 1 (number of panelists) ([3]; Example 7 Group F): 1
- Urine Odor Ranking 5 (number of panelists) ([3]; Example 7 Group F): 1
- Urine Odor Ranking 6 (number of panelists) ([3]; Example 7 Group F): 1
- Urine Odor Ranking 7 (number of panelists) ([3]; Example 7 Group F): 1
- Urine Odor Ranking 8 (number of panelists) ([3]; Example 7 Group F): 1
- Soluble? [4, 7]: Yes
- Soluble? [4, 8]: Mostly

Molecule: Cc1ccc(Nc2ccc(O)c3c2C(=O)c2ccccc2C3=O)c(S(=O)(=O)[O-])c1.[Na+] [Acid Violet 43]
- Average Rankings (Group A), Avg. Score [2, 9]: 4.75
- Urine Odor Ranking 2 (number of panelists) [2, 9]: 2
- Urine Odor Ranking 7 (number of panelists) [2, 9]: 1
- Urine Odor Ranking 8 (number of panelists) [2, 9]: 1
- Average Rankings (Group D), Avg. Score ([3]; Example 7 Group D): 4.2
- Urine Odor Ranking 1 (number of panelists) ([3]; Example 7 Group D): 1
- Urine Odor Ranking 3 (number of panelists) ([3]; Example 7 Group D): 1
- Urine Odor Ranking 4 (number of panelists) ([3]; Example 7 Group D): 1
- Urine Odor Ranking 5 (number of panelists) ([3]; Example 7 Group D): 1
- Urine Odor Ranking 8 (number of panelists) ([3]; Example 7 Group D): 1
- Soluble? [4, 7]: Yes
- Soluble? [4, 8]: No

Molecule: Cc1c(C(=O)O)c(O)cc2c1C(=O)c1c(O)c([C@@H]3O[C@H](CO)[C@@H](O)[C@H](O)[C@H]3O)c(O)c(O)c1C2=O [Carminic Acid, Natural Red 4 (Carminic Acid)]
- Average Rankings (Group E), Avg. Score ([3]; Example 7 Group E): 3.6
- Urine Odor Ranking 1 (number of panelists) ([3]; Example 7 Group E): 2
- Urine Odor Ranking 3 (number of panelists) ([3]; Example 7 Group E): 1
- Urine Odor Ranking 4 (number of panelists) ([3]; Example 7 Group E): 1
- Urine Odor Ranking 9 (number of panelists) ([3]; Example 7 Group E): 1

Molecule: Cc1cc(O)c2c(c1)C(=O)c1cc(O)cc(O)c1C2=O [Emodin]
- Average Rankings (Group C), Avg. Score ([3]; Example 7 Group C): 7.8
- Urine Odor Ranking 5 (number of panelists) ([3]; Example 7 Group C): 1
- Urine Odor Ranking 8 (number of panelists) ([3]; Example 7 Group C): 2
- Urine Odor Ranking 9 (number of panelists) ([3]; Example 7 Group C): 2
- Soluble? [4, 8]: No

Molecule: Nc1c(S(=O)(=O)O)cc(Nc2ccc(Nc3nc(Cl)nc(Nc4cccc(S(=O)(=O)O)c4)n3)c(S(=O)(=O)O)c2)c2c1C(=O)c1ccccc1C2=O [Procion Blue HB, Reactive Blue 2 (Procion Blue HB)]
- Average Rankings, Avg. Score [1]: 3.5
- Urine Odor Ranking 1 (number of panelists) [1]: 2
- Urine Odor Ranking 2 (number of panelists) [1]: 1
- Urine Odor Ranking 4 (number of panelists) [1]: 1
- Urine Odor Ranking 7 (number of panelists) [1]: 1
- Average Rankings (Group A), Avg. Score [2, 9]: 6.5
- Urine Odor Ranking 5 (number of panelists) [2, 9]: 1
- Urine Odor Ranking 6 (number of panelists) [2, 9]: 1
- Urine Odor Ranking 7 (number of panelists) [2, 9]: 1
- Urine Odor Ranking 8 (number of panelists) [2, 9]: 1
- Average Rankings (Group F), Avg. Score ([3]; Example 7 Group F): 5.2
- Urine Odor Ranking 1 (number of panelists) ([3]; Example 7 Group F): 1
- Urine Odor Ranking 4 (number of panelists) ([3]; Example 7 Group F): 1
- Urine Odor Ranking 5 (number of panelists) ([3]; Example 7 Group F): 1
- Urine Odor Ranking 6 (number of panelists) ([3]; Example 7 Group F): 1
- Urine Odor Ranking 9 (number of panelists) ([3]; Example 7 Group F): 1
- Urine Odor Ranking 10 (number of panelists) ([3]; Example 7 Group F): 1
- Soluble? ([4]; Example 4, 8 millimolar in 50 milliliters of urine): Yes
- Soluble? [4, 7]: Yes
- Soluble? [4, 8]: Yes

Molecule: Nc1c(S(=O)(=O)[O-])cc(Nc2cccc(S(=O)(=O)CCOS(=O)(=O)[O-])c2)c2c1C(=O)c1ccccc1C2=O.[Na+].[Na+] [Remazol Brilliant Blue R, Reactive Blue 19 (Remazol Brilliant Blue R)]
- reducing urine odor (in words) [1]: most effective in reducing urine odor
- Average Rankings, Avg. Score [1]: 1.5
- Urine Odor Ranking 1 (number of panelists) [1]: 2
- Urine Odor Ranking 2 (number of panelists) [1]: 2
- odor reduction performance (in words) ([2]; Example 5 Group B): performed well
- Average Rankings (Group B), Avg. Score [2, 6]: 3
- Urine Odor Ranking 1 (number of panelists) [2, 6]: 2
- Urine Odor Ranking 4 (number of panelists) [2, 6]: 1
- Urine Odor Ranking 6 (number of panelists) [2, 6]: 1
- Average Rankings, Avg. Score [5]: 4.75
- Urine Odor Ranking 2 (number of panelists) [5]: 1
- Urine Odor Ranking 3 (number of panelists) [5]: 1
- Urine Odor Ranking 7 (number of panelists) [5]: 2
- Average Rankings (Group E), Avg. Score ([3]; Example 7 Group E): 3.4
- Urine Odor Ranking 1 (number of panelists) ([3]; Example 7 Group E): 1
- Urine Odor Ranking 2 (number of panelists) ([3]; Example 7 Group E): 2
- Urine Odor Ranking 3 (number of panelists) ([3]; Example 7 Group E): 1
- Urine Odor Ranking 9 (number of panelists) ([3]; Example 7 Group E): 1

Molecule: CCNc1ccc(NCC)c2c1C(=O)c1ccccc1C2=O [Solvent Blue 59]
- Average Rankings, Avg. Score [1]: 5.25
- Urine Odor Ranking 3 (number of panelists) [1]: 1
- Urine Odor Ranking 5 (number of panelists) [1]: 1
- Urine Odor Ranking 6 (number of panelists) [1]: 1
- Urine Odor Ranking 7 (number of panelists) [1]: 1

Molecule: Cc1ccc(Nc2ccc(Nc3ccc(C)cc3)c3c2C(=O)c2ccccc2C3=O)cc1 [Solvent Green 3]
- Average Rankings, Avg. Score [1]: 3.75
- Urine Odor Ranking 2 (number of panelists) [1]: 1
- Urine Odor Ranking 3 (number of panelists) [1]: 1
- Urine Odor Ranking 4 (number of panelists) [1]: 1
- Urine Odor Ranking 6 (number of panelists) [1]: 1

Molecule: Acid Black 48
- Average Rankings (Group C), Avg. Score ([3]; Example 7 Group C): 7.2
- Urine Odor Ranking 2 (number of panelists) ([3]; Example 7 Group C): 1
- Urine Odor Ranking 6 (number of panelists) ([3]; Example 7 Group C): 1
- Urine Odor Ranking 8 (number of panelists) ([3]; Example 7 Group C): 1
- Urine Odor Ranking 10 (number of panelists) ([3]; Example 7 Group C): 2
- Soluble? [4, 8]: Somewhat

Reference: patent US20070048247A1, “Deodorizing tablets” (Kimberly-Clark Worldwide, Inc., priority 2005, published 2007)
